# Experiments:
# Assay type in all cases: biochemical
# KLK5 = target: T1, KLK5 (Homo sapiens, UniProt Q9Y337); experiment: KLK5 enzyme inhibition assay, fluorogenic substrate Boc-Val-Pro-Arg-AMC; conditions: 37° C., 15 min of incubation, pH 8; for IC50: Table A, read-out: IC50 (μM) KLK5
# T1 sequence (Q9Y337 23-293): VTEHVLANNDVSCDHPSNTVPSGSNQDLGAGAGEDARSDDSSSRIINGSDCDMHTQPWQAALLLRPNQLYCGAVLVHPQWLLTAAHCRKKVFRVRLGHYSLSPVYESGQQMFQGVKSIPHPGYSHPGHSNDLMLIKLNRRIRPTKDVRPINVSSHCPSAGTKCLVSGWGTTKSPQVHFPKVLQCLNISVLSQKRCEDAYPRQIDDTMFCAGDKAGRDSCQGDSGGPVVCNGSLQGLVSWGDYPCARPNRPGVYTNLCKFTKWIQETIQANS
# Procedure: (§1) Kallikreins KLK5, KLK7 and KLK14 activities were determined by monitoring the hydrolysis of the appropriate fluorogenic substrate (λexc=355, λem=460 nm) for 15 min at 37° C. in the presence of the untreated kallikrein (control) or kallikrein that had been incubated with a test compound. Substrate and compounds were previously dissolved in DMSO, with the final solvent concentration kept constant at 2% (v/v) (KLK 5 and 14), and 4% (v/v) (KLK7). The composition of the activity buffers (pH 8.0) was 100 mM Tris-HCl, 150 mM NaCl, 0.01% (v/v) Tween 20 for the KLK5 assay, and 100 mM Tris-HCl, 1M NaCl, 0.01% (v/v) Tween 20 in the KLK 7 and 14 assays. The final concentrations were 0.6 nM (KLK5) and 100 μM (Boc-Val-Pro-Arg-AMC) (KLK5 assay), 8 nM (KLK7) and 40 μM (Suc-Leu-Leu-Val-Tyr-AMC, AMC: 7-amino-4-methyl-coumarin) (KLK7 assay), and 0.17 nM (KLK14) and 10 μM (Boc-Val-Pro-Arg-AMC) (KLK14 assay). Using the appropriate substrate, the coumarinic compounds (0.01-100 μM) were tested in duplicate for each inhibitor concentration to detect their inhibitory potential. The enzyme and the inhibitors were incubated for 15 min before the determination of the enzyme activity. Initial rates determined in control experiments (V0) were considered to be 100% of the peptidase activity; initial rates below 100% were considered to be inhibitions. The inhibitory activity of compounds was expressed as IC50 (inhibitor concentrations giving 50% inhibition). The values of IC50 were calculated by fitting the experimental data to the equation: % Inhibition=100×(1−Vi/V0)=100[I]0/(IC50+[I]0), or equation: % Inhibition=100[I]0^nH/(IC50^nH+[I]0^nH),nH is the Hill number.
# (§2) The tests were realized at 37° C. after 15 min of incubation at pH 8.
# KLK7 = KLK7 (Homo sapiens, UniProt P49862); experiment: KLK7 enzyme inhibition assay, fluorogenic substrate Suc-Leu-Leu-Val-Tyr-AMC; conditions: for inhibition at 100 µM / IC50 / inhibition at 50 µM / inhibition at 10 µM: 37° C., 15 min of incubation, pH 8; for selective activity against enzyme: KLK7: Table B, among KLK5, KLK7 and KLK14; for IC50: Table A, read-out: IC50 (μM) KLK7
# Procedure: as §1, §2
# KLK14 = target: T2, KLK14 (Homo sapiens, UniProt Q9P0G3); experiment: KLK14 enzyme inhibition assay, fluorogenic substrate Boc-Val-Pro-Arg-AMC; conditions: for inhibition at 100 µM / IC50 / inhibition at 50 µM: 37° C., 15 min of incubation, pH 8; for IC50: Table A, read-out: IC50 (μM) KLK14; for selective activity against enzyme: KLK14: Table B, among KLK5, KLK7 and KLK14
# T2 sequence (Q9P0G3 25-251): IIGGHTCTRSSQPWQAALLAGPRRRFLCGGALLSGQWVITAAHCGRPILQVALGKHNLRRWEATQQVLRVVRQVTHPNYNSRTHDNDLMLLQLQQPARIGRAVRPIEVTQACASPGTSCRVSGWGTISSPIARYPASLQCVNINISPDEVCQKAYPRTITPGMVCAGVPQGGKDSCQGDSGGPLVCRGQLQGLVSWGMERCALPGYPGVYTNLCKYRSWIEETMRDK
# Procedure: as §1, §2
# Chain of KLK7 (P49862 30-253): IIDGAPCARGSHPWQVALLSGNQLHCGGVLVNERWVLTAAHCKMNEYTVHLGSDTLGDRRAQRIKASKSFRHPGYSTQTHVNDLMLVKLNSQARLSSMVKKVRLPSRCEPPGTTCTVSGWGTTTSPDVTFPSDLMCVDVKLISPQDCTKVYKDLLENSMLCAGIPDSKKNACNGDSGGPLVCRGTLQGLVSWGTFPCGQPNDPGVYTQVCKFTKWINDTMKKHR
compound,measurement,setting,value
CCC(=O)OCc1ccc2oc(=O)c(C(=O)Oc3cncc(Cl)c3)cc2c1 [LP42],inhibition at 50 µM,KLK5,22%
same,inhibition at 100 µM,KLK7,52%
same,selective activity against enzyme: KLK7,KLK7,KLK7
CCOC(=O)c1cc2cc(COC(C)=O)ccc2oc1=O [LP43],inhibition at 100 µM,KLK5,49%
same,inhibition at 100 µM,KLK14,49%
same,inhibition at 100 µM,KLK7,30%
CC(=O)OCc1ccc2oc(=O)c(C(=O)Oc3cccc(Cl)c3)cc2c1 [LP46],inhibition at 50 µM,KLK5,31%
same,IC50,KLK14,31 ± 6 µM
O=C(Oc1cccc(F)c1)c1cc2cc(CCl)ccc2oc1=O [LP51],inhibition at 50 µM,KLK5,26%
same,inhibition at 100 µM,KLK14,30%
same,IC50,KLK7,0.25 ± 0.01 µM
same,selective activity against enzyme: KLK7,KLK7,KLK7
O=C(Oc1ccccc1[N+](=O)[O-])c1cc2cc(CCl)ccc2oc1=O [LP60],IC50,KLK5,112 ± 6 µM
same,inhibition at 100 µM,KLK14,46%
same,IC50,KLK7,1.44 ± 0.02 µM
NCc1ccc2oc(=O)c(C(=O)Oc3ccccc3)cc2c1 [LP71],IC50,KLK5,182 ± 14 µM
O=C(Oc1c(Cl)cccc1Cl)c1cc2cc(CCl)ccc2oc1=O [LP72],IC50,KLK5,59 ± 9 µM
same,inhibition at 100 µM,KLK14,50%
same,IC50,KLK7,0.495 ± 0.037 µM
same,selective activity against enzyme: KLK7,KLK7,KLK7
O=C(Oc1cc(Cl)ccc1Cl)c1cc2cc(CCl)ccc2oc1=O [LP74],IC50,KLK5,1.3 ± 0.2 µM
same,IC50,KLK14,54 ± 6 µM
same,IC50,KLK7,0.195 ± 0.024 µM
same,selective activity against enzyme: KLK7,KLK7,KLK7
O=C(Oc1cc(Cl)cc(Cl)c1)c1cc2cc(CCl)ccc2oc1=O [LP75],IC50,KLK5,80 ± 8 µM
same,IC50,KLK7,0.136 ± 0.012 µM
COC(=O)c1cc2cc(CCl)ccc2oc1=O [MFS2],IC50,KLK5,54 ± 2 µM
same,IC50,KLK14,73 ± 14 µM
same,IC50,KLK7,26.8 ± 1.5 µM
CCOC(=O)c1cc2cc(CCl)ccc2oc1=O [MFS3],inhibition at 50 µM,KLK5,39%
same,inhibition at 100 µM,KLK14,48%
same,IC50,KLK7,20.9 ± 0.9 µM
Cc1cc(OC(=O)c2cc3cc(CCl)ccc3oc2=O)ccc1Cl [MFS35],inhibition at 100 µM,KLK14,71%
same,selective activity against enzyme: KLK14,KLK14,KLK14
same,inhibition at 100 µM,KLK7,55%
O=C(Oc1ccccc1Cl)c1cc2cc(CCl)ccc2oc1=O [MFS36],inhibition at 100 µM,KLK5,50%
same,inhibition at 100 µM,KLK14,100%
same,IC50,KLK7,0.209 ± 0.006 µM
same,selective activity against enzyme: KLK7,KLK7,KLK7
O=C(Oc1ccccc1)c1cc2cc(O)ccc2oc1=O [MH8],inhibition at 50 µM,KLK7,25%
same,selective activity against enzyme: KLK7,KLK7,KLK7
O=C(Oc1ccccc1Cl)c1cc2cc(O)ccc2oc1=O [MH14],inhibition at 50 µM,KLK7,35%
same,selective activity against enzyme: KLK7,KLK7,KLK7
O=C(Oc1ccccc1)c1cc2cc(O)c(O)cc2oc1=O [MH22],inhibition at 50 µM,KLK5,32%
same,inhibition at 50 µM,KLK14,85%
same,inhibition at 50 µM,KLK7,100%
CS(=O)(=O)NCc1ccc2oc(=O)c(C(=O)Oc3cccc(Cl)c3)cc2c1 [MH24],inhibition at 50 µM,KLK14,42%
same,IC50,KLK7,33.2 ± 1.4 µM
O=C(Oc1ccccc1)c1cc2cc(CO)ccc2oc1=O [MH30],inhibition at 50 µM,KLK5,25%
same,inhibition at 50 µM,KLK14,32%
same,IC50,KLK7,33.2 ± 1.4 µM
CC(=O)NCc1ccc2oc(=O)c(C(=O)Oc3ccc(Br)cc3)cc2c1 [MH52],inhibition at 10 µM,KLK7,58%
same,selective activity against enzyme: KLK7,KLK7,KLK7
CC(=O)OCc1ccc2oc(=O)c(C(=O)Oc3ccccc3Br)cc2c1 [SMB26],inhibition at 10 µM,KLK7,52%
same,selective activity against enzyme: KLK7,KLK7,KLK7
CC(=O)OCc1ccc2oc(=O)c(C(=O)Oc3ccccc3Cl)cc2c1 [SMB27],inhibition at 50 µM,KLK14,27%
same,inhibition at 50 µM,KLK7,42%
"CC(=O)OCc1ccc2oc(=O)c(C(=O)Oc3ccccc3I)cc2c1 [SMB28, 2-iodophenyl 6-acetoxymethyl-2-oxo-2H-1-benzopyran-3-carboxylate]",IC50,KLK7,82.2 ± 13.2 µM
same,selective activity against enzyme: KLK7,KLK7,KLK7
"CC(=O)OCc1ccc2oc(=O)c(C(=O)Oc3ccccc3C#N)cc2c1 [SMB33, 2-cyanophenyl 6-acetoxymethyl-2-oxo-2H-1-benzopyran-3-carboxylate]",inhibition at 50 µM,KLK14,27%
same,selective activity against enzyme: KLK14,KLK14,KLK14

# Source: US9814696B2, “Use of coumarin derivatives for the preparation of drugs for treating skin diseases” (UNIVERSITE PIERRE ET MARIE CURIE (PARIS 6), priority 2011, dated 2017)
